Patent publication US10556900B2, “TrkA kinase inhibitors, compositions and methods thereof” (Merck Sharp & Dohme Corp., priority 2015, dated 2020)
pIC50: −log10 of the molar value.

molecular target: human TrkA receptor (Homo sapiens (Human), UniProt P04629); experiment: TrkA functional activity, DiscoverX PathHunter assay (NGF-stimulated U2OS cells); type: cell-based; conditions: U2OS cells expressing human TrkA-Prolink, Shc1-EA and p75NTR; compound 1 h, then NGF (~80% of maximal response) 3 h; luminescence
Procedure: TrkA functional activity was measured using a DiscoverX PathHunter assay. In this assay, U2OS cells express the human TrkA receptor as a fusion with the weakly complementing fragment of B-galactosidase, which DiscoverX calls “Prolink (PK)”; additionally, Shc1 is fused with a larger fragment, which is called “Enzyme Acceptor (EA)”. Activation of the TrkA receptor, upon NGF addition, results in the kinase domain being phosphorylated, resulting in subsequent recruitment of Shc1-EA protein. That recruitment results in an active B-galactosidase enzyme that is detected by addition of a chemiluminescent substrate. The human p75^NTR protein was also expressed as a co-receptor for NGF.
All reagents were purchased from DiscoverX, except for the receptor agonists (NGF, BDNF, NT3) which were purchased from Peprotech. Cells were expanded and frozen into cryovials, and stored in the vapor phase of liquid nitrogen, and thawed immediately before use. Thawed cells were added to a 384-well plate at 7500 cells/well, and allowed to incubate overnight. Compound at various concentrations was added the following morning and allowed to incubate on cells for 1 h. Then, NGF was added at a concentration sufficient to elicit ˜80% of a maximal response and allowed to incubate for 3 h at ambient temperature. DiscoverX PathHunter detection reagent was then added and the plate was further incubated for 1 h in the dark. The plate was then read via luminescence on the Perkin Elmer Envision.

human TrkA receptor, sequence (P04629 33-796): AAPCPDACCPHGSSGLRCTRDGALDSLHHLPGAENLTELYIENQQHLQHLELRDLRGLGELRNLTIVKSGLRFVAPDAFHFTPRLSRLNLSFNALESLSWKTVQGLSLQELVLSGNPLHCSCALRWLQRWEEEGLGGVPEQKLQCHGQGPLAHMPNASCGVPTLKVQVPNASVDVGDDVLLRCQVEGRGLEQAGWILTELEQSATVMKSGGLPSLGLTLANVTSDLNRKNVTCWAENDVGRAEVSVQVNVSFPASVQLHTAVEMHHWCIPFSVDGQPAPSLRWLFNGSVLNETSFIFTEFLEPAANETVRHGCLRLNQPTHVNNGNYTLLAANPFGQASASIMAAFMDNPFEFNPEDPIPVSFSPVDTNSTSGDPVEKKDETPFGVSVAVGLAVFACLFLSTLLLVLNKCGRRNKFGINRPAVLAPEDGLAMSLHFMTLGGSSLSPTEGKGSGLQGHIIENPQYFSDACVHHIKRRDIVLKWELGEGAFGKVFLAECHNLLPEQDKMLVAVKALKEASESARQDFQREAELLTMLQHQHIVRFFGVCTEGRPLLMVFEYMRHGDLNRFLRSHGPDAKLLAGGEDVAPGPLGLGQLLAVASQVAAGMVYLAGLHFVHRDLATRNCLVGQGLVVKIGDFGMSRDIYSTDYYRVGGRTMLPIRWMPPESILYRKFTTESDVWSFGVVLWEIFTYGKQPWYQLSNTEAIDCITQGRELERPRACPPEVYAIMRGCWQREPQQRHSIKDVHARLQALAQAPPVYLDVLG

Point of comparison: `CC(=O)c1c[nH]c2c(NC(=O)c3ccc(C(F)(F)F)c(-c4ccn(C)n4)c3)c(-c3ccccc3)ccc12` [Compound 43, N-(3-Acetyl-6-phenyl-1H-indol-7-yl)-3-(1-methyl-1H-pyrazol-3-yl)-4-(trifluoromethyl)benzamide], pIC50 8.30. Against it:
- Cn1ccc(-c2cc(C(=O)Nc3c(-c4ccccc4)ccc4sc(C(C)(C)O)nc34)ccc2C(F)(F)F)n1 [Compound 4, N-(2-(2-Hydroxypropan-2-yl)-5-phenylbenzo[d]thiazol-4-yl)-3-(1-methyl-1H-pyrazol-3-yl)-4-(trifluoromethyl)benzamide] — 1.13 log units lower, 7.17
- NC(=O)c1cnc2c(NC(=O)c3cc(-c4ncccn4)c(C(F)(F)F)cc3F)c(-c3ccccc3)ccn12 [Compound 7, 8-(2-Fluoro-5-(pyrimidin-2-yl)-4-(trifluoromethyl)benzamido)-7-phenylimidazo[1,2-a]pyridine-3-carboxamide] — 0.38 log units higher, 8.68
- O=C(Nc1c(-c2ccccc2)ccn2c(CO)cnc12)c1cc(-c2ncccn2)c(C(F)(F)F)cc1F [Compound 8, 2-Fluoro-N-(3-(hydroxymethyl)-7-phenylimidazo[1,2-a]pyridin-8-yl)-5-(pyrimidin-2-yl)-4-(trifluoromethyl)benzamide] — within 0.2 log units, 8.21
- CC(C)(O)c1cnc2c(NC(=O)c3cc(-c4ncccn4)c(C(F)(F)F)cc3F)c(-c3ccccc3)ccn12 [Compound 11, 2-Fluoro-N-(3-(2-hydroxypropan-2-yl)-7-phenylimidazo[1,2-a]pyridin-8-yl)-5-(pyrimidin-2-yl)-4-(trifluoromethyl)benzamide] — within 0.2 log units, 8.40
- Cn1ccc(-c2cc(C(=O)Nc3c(-c4ccccc4)ccn4c(C(N)=O)cnc34)ccc2C(F)(F)F)n1 [Compound 12, 8-({[3-(1-methyl-1H-pyrazol-3-yl)-4-(trifluoromethyl)phenyl]carbonyl}amino)-7-phenylimidazo[1,2-a]pyridine-3-carboxamide] — within 0.2 log units, 8.24
- Cn1ccc(-c2cc(C(=O)Nc3c(-c4ccccc4)ccn4c(CO)cnc34)ccc2C(F)(F)F)n1 [Compound 13, N-[3-(hydroxymethyl)-7-phenylimidazo[1,2-a]pyridin-8-yl]-3-(1-methyl-1H-pyrazol-3-yl)-4-(trifluoromethyl)benzamide] — 0.32 log units higher, 8.62
- Cn1ccc(-c2cc(C(=O)Nc3c(-c4ccccc4)ccn4c(C(C)(C)O)cnc34)c(F)cc2C(F)(F)F)n1 [Compound 16, 2-fluoro-N-[3-(1-hydroxy-1-methylethyl)-7-phenylimidazo[1,2-a]pyridin-8-yl]-5-(1-methyl-1H-pyrazol-3-yl)-4-(trifluoromethyl)benzamide] — 1.40 log units higher, 9.70
- Cn1ccc(-c2cc(C(=O)Nc3c(-c4ccccc4)ccn4c(C(C)(C)O)cnc34)c(Cl)cc2C(F)(F)F)n1 [Compound 17, 2-chloro-N-[3-(1-hydroxy-1-methylethyl)-7-phenylimidazo[1,2-a]pyridin-8-yl]-5-(1-methyl-1H-pyrazol-3-yl)-4-(trifluoromethyl)benzamide] — 0.66 log units higher, 8.96
- CC(C)(O)c1cnc2c(NC(=O)c3cc(-c4ccccn4)c(C(F)(F)F)cc3Cl)c(-c3ccccc3)ccn12 [Compound 18, 2-chloro-N-[3-(1-hydroxy-1-methylethyl)-7-phenylimidazo[1,2-a]pyridin-8-yl]-5-pyridin-2-yl-4-(trifluoromethyl)benzamide] — within 0.2 log units, 8.17
- CC(C)(O)c1cnc2c(NC(=O)c3cc(-c4ccccn4)c(C(F)(F)F)cc3F)c(-c3ccccc3)ccn12 [Compound 19, 2-fluoro-N-[3-(1-hydroxy-1-methylethyl)-7-phenylimidazo[1,2-a]pyridin-8-yl]-5-pyridin-2-yl-4-(trifluoromethyl)benzamide] — 0.42 log units higher, 8.72
- CC(C)(O)c1cnc2c(NC(=O)c3cc(-c4ncccn4)c(C(F)(F)F)cc3Cl)c(-c3ccccc3)ccn12 [Compound 20, 2-chloro-N-[3-(1-hydroxy-1-methylethyl)-7-phenylimidazo[1,2-a]pyridin-8-yl]-5-pyrimidin-2-yl-4-(trifluoromethyl)benzamide] — 0.50 log units lower, 7.80
- NC(=O)c1cnc2c(NC(=O)c3cc(-c4ccccn4)c(C(F)(F)F)cc3F)c(-c3ccccc3)ccn12 [Compound 21, 8-({[2-fluoro-5-pyridin-2-yl-4-(trifluoromethyl)phenyl]carbonyl}amino)-7-phenylimidazo[1,2-a]pyridine-3-carboxamide] — within 0.2 log units, 8.43
- Cn1ccc(-c2cc(C(=O)Nc3c(-c4ccccc4)ccn4c(C(N)=O)cnc34)c(F)cc2C(F)(F)F)n1 [Compound 22, 8-({[2-fluoro-5-(1-methyl-1H-pyrazol-3-yl)-4-(trifluoromethyl)phenyl]carbonyl}amino)-7-phenylimidazo[1,2-a]pyridine-3-carboxamide] — 0.99 log units higher, 9.29
- Cn1ccc(-c2cc(C(=O)Nc3c(-c4ccccc4)ccn4c(CO)cnc34)c(F)cc2C(F)(F)F)n1 [Compound 23, 2-fluoro-N-[3-(hydroxymethyl)-7-phenylimidazo[1,2-a]pyridin-8-yl]-5-(1-methyl-1H-pyrazol-3-yl)-4-(trifluoromethyl)benzamide] — 0.98 log units higher, 9.28
- O=C(Nc1c(-c2ccccc2)ccn2c(CO)cnc12)c1cc(-c2ccccn2)c(C(F)(F)F)cc1F [Compound 24, 2-fluoro-N-[3-(hydroxymethyl)-7-phenylimidazo[1,2-a]pyridin-8-yl]-5-pyridin-2-yl-4-(trifluoromethyl)benzamide] — 0.30 log units higher, 8.60
- CC(C)(O)c1cnc2c(NC(=O)c3cc(-c4cc[nH]n4)c(C(F)(F)F)cc3F)c(-c3ccccc3)ccn12 [Compound 31, 2-fluoro-N-[3-(1-hydroxy-1-methylethyl)-7-phenylimidazo[1,2-a]pyridin-8-yl]-5-(1H-pyrazol-3-yl)-4-(trifluoromethyl)benzamide] — 0.73 log units higher, 9.03
- Cn1ccc(-c2cc(C(=O)Nc3c(-c4ccccc4)ccn4c(C(C)(C)O)cnc34)ccc2C(F)(F)F)n1 [Compound 32, N-[3-(1-hydroxy-1-methylethyl)-7-phenylimidazo[1,2-a]pyridin-8-yl]-3-(1-methyl-1H-pyrazol-3-yl)-4-(trifluoromethyl)benzamide] — within 0.2 log units, 8.21
- Cn1ccc(-c2cc(C(=O)Nc3c(-c4ccccc4)ncn4cnnc34)ccc2C(F)(F)F)n1 [Compound 33, 3-(1-methyl-1H-pyrazol-3-yl)-N-(7-phenyl[1,2,4]triazolo[4,3-c]pyrimidin-8-yl)-4-(trifluoromethyl)benzamide] — within 0.2 log units, 8.20
- Cn1ccc(-c2cc(C(=O)Nc3c(-c4ccccc4)ccn4ccnc34)ccc2C(F)(F)F)n1 [Compound 34, 3-(1-Methyl-1H-pyrazol-3-yl)-N-(7-phenylimidazo[1,2-a]pyridin-8-yl)-4-(trifluoromethyl)benzamide] — 1.02 log units lower, 7.28
- [2H]C([2H])(O)c1cnc2c(NC(=O)c3cc(-c4ncccn4)c(C(F)(F)F)cc3F)c(-c3ccccc3)ccn12 [Compound 35, 2-Fluoro-N-(3-(hydroxymethyl-d2)-7-phenylimidazo[r 12-a]pyridin-8-yl)-5-(pyrimidin-2-yl)-4-(trifluoromethyl)benzamide] — within 0.2 log units, 8.36
- Cn1ccc(-c2cc(C(=O)Nc3c(-c4ccccc4)ccc4c(C(C)(C)O)cnn34)c(F)cc2C(F)(F)F)n1 [Compound 36, 2-Fluoro-N-(3-(2-hydroxypropan-2-yl)-6-phenylpyrazolo[1,5-a]pyridin-7-yl)-5-(1-methyl-1H-pyrazol-3-yl)-4-(trifluoromethyl)benzamide] — 1.10 log units higher, 9.40
- Cn1ccc(-c2cc(C(=O)Nc3c(-c4ccccc4)ccc4c(C(C)(C)O)cnn34)ccc2C(F)(F)F)n1 [Compound 37, N-[3-(1-hydroxy-1-methylethyl)-6-phenylpyrazolo[1,5-a]pyridin-7-yl]-3-(1-methyl-1H-pyrazol-3-yl)-4-(trifluoromethyl)benzamide] — within 0.2 log units, 8.35
- CC(C)(O)c1cnn2c(NC(=O)c3cc(-c4ncccn4)c(C(F)(F)F)cc3F)c(-c3ccccc3)ccc12 [Compound 38, 2-fluoro-N-[3-(1-hydroxy-1-methylethyl)-6-phenylpyrazolo[1,5-a]pyridin-7-yl]-5-pyrimidin-2-yl-4-(trifluoromethyl)benzamide] — 0.44 log units higher, 8.74
- Cn1ccc(-c2cc(C(=O)Nc3c(-c4ccccc4)ccc4c(CO)cnn34)c(F)cc2C(F)(F)F)n1 [Compound 39, 2-fluoro-N-[3-(hydroxymethyl)-6-phenylpyrazolo[1,5-a]pyridin-7-yl]-5-(1-methyl-1H-pyrazol-3-yl)-4-(trifluoromethyl)benzamide] — 1.18 log units higher, 9.48
- Cn1ccc(-c2cc(C(=O)Nc3c(-c4ccccc4)ccc4c(CO)cnn34)ccc2C(F)(F)F)n1 [Compound 40, N-[3-(hydroxymethyl)-6-phenylpyrazolo[1,5-a]pyridin-7-yl]-3-(1-methyl-1H-pyrazol-3-yl)-4-(trifluoromethyl)benzamide] — 0.55 log units higher, 8.85
- O=C(Nc1c(-c2ccccc2)ccc2c(CO)cnn12)c1cc(-c2ncccn2)c(C(F)(F)F)cc1F [Compound 41, 2-fluoro-N-[3-(hydroxymethyl)-6-phenylpyrazolo[1,5-a]pyridin-7-yl]-5-pyrimidin-2-yl-4-(trifluoromethyl)benzamide] — 0.38 log units higher, 8.68
- Cn1ccc(-c2cc(C(=O)Nc3c(-c4ccccc4)ccc4cc(C(C)(C)O)[nH]c34)ccc2C(F)(F)F)n1 [Compound 42, N-(2-(2-Hydroxypropan-2-yl)-6-phenyl-1H-indol-7-yl)-3-(1-methyl-1H-pyrazol-3-yl)-4-(trifluoromethyl)benzamide] — 0.88 log units higher, 9.18
